5 compounds from ChEMBL document CHEMBL2157979, “Discovery of new non-steroidal FXR ligands via a virtual screening workflow based on Phase shape and induced fit docking” (Bioorg Med Chem Lett, 2012) can be followed below.

Where only a bound is given, the exact number is not on record here.

Assay [1] deals with T1, Bile acid receptor (Homo sapiens, UniProt Q96RI1).
T1 sequence (Q96RI1 whole entry): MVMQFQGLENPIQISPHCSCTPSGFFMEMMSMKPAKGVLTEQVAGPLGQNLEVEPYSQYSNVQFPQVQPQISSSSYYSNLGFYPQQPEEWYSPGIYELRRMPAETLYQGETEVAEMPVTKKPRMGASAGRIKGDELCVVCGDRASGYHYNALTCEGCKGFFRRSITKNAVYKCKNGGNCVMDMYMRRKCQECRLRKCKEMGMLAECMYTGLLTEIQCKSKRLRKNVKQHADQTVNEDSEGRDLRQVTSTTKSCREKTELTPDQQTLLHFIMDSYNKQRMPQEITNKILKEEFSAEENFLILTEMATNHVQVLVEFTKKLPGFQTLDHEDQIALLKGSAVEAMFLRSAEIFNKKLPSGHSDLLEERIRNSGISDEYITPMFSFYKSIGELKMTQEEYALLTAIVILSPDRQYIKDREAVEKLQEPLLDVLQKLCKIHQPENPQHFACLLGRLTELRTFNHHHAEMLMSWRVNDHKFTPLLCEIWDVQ
Put plainly: Agonist activity at FXR. The assay is classed as functional.

In assay [2] the target is T2, Bile acid receptor (Homo sapiens) (UniProt Q96RI1).
T2 sequence (whole entry): T1 sequence (Q96RI1 whole entry)
The assay is described as follows: (§1) Antagonist activity at GST-tagged FXRalpha ligand binding domain assessed as inhibition of CDCA-induced biotinylated SRC1 binding after 30 mins by HTRF assay. A general note: Time-resolved FRET reads energy transfer from a long-lived donor to a nearby acceptor.

Assay [3] concerns the target T1, Bile acid receptor. Described as §1.
Assay [4] has as its target T2, Bile acid receptor (Homo sapiens). The assay is described as follows: Agonist activity at GST-tagged FXRalpha ligand binding domain assessed as biotinylated SRC1 binding at 20 uM after 30 mins by HTRF assay.
The target is the same in assay [5]. Put plainly: Antagonist activity at GST-tagged FXRalpha ligand binding domain assessed as inhibition of CDCA-induced biotinylated SRC1 binding at 20 uM after 30 mins by HTRF assay.
Assay [6] has the same target. Put plainly: (§2) Agonist activity at GST-tagged FXRalpha ligand binding domain assessed as biotinylated SRC1 binding after 30 mins by HTRF assay.
Assay [7] has as its target T1, Bile acid receptor. The description is as §2.
For assay [8], the target named is T2, Bile acid receptor (Homo sapiens). The assay is described as follows: (§3) Agonist activity at FXRalpha expressed in HEK293 cells assessed as increase in transcriptional activity after 18 hrs by luciferase reporter gene assay. The assay is classed as functional, cell-based. (In general: Reporter assays use an easily measured gene product as a stand-in for the process of interest.)

The target of assay [9] is T1, Bile acid receptor. The assay is described as §3. The assay is classed as functional, cell-based.

On Bile acid receptor [1], `Cc1cc(OCc2c(-c3c(Cl)cncc3Cl)noc2C(C)C)ccc1-c1ccc2c(c1)c(C(=O)O)cn2C` returned a 50% effective concentration (EC50) of 0.094 µM.
Take `COC(=O)/C=C/c1cccc(N(Cc2ccc(/C=C/c3ccccc3)cc2)C(=O)C2CCCCC2)c1`: the response at Bile acid receptor [1] was half-maximal at 0.036 µM (EC50).
On to `C[C@@H]1CCc2c(sc3nc(CN4CCOCC4)nc(N[C@H](c4ccccc4)c4ccccn4)c23)C1`, for which the inhibition result is “Dose-dependent effect” in assay [2] and 57.1% in [5]. Further, the IC50 at Bile acid receptor [3] was determined as 8.23 µM. Also, the Activity in assay [4] is less than 5%.
With `NC(=O)c1ccc(NC(=O)[C@@H](Cc2ccccc2)NC(=O)c2ccc(Cl)cc2)cc1`, the Activity entry in [6] is “Dose-dependent effect”; in [8], “Dose-dependent effect”; in assay [4], 52.5%. Besides, the EC50 at Bile acid receptor [7] was 12.9 µM; on Bile acid receptor [9] it was 2.6 µM. Also, the inhibition in assay [5] is 7.28%.
For the compound `O=C(COC(=O)c1ccc(O)cc1)Nc1sc2c(c1C(=O)c1ccccc1)CCCC2`, the inhibition result in assay [2] is “Dose-dependent effect”; in assay [5] it was 63.3%. The IC50 on Bile acid receptor [3] was 3.77 µM. Moreover, in assay [4], the Activity is less than 5%.

What is called EC50 is the concentration needed to bring the measured effect to its halfway point. The inhibition is the drop in the measured response relative to a control, in per cent. What is called IC50 is the point on the concentration scale where inhibition reaches its midpoint.
